Measured values as given in patent US12351576B2, “FGFR inhibitor, preparation method therefor and application thereof” (Abbisko Therapeutics Co., Ltd., priority 2018, dated 2025).
Read-outs that look alike come from different tables or passages of the source.

Legend:
FGFR2 = FGFR2 (Homo sapiens (Human), UniProt P21802); assay: In vitro biochemical kinase assay (Caliper Assay), FGFR2; settings: enzyme 2.5 nM, ATP 1 μM, 40 minutes; read-out: Enzymatic activity IC50(nM) FGFR2
Method: (§1) I. In Vitro Biochemical Kinase Assay of FGFR 1˜3
(§2) Caliper Assay was used in the present invention to determine the inhibitory activities of the compounds against FGFR1, FGFR2, and FGFR3. The specific experimental procedure was as follows: • 1. The kinase reaction in the present invention was carried out in 384-well plates, the kinase(Carna) at a certain concentration and ATP at a certain concentration and 1 μM of peptide FAM-P22 (GL Biochem, Cat. No. 112393)) was incubated to react for a certain time at 28° C. in a reaction system consisting of 50 mM HEPES, […], 0.0015% Brij-35 and basic kinase buffer; for FGFR1, the enzyme concentration was 0.25 nM and ATP concentration was 382 μM and the reaction time was 20 minutes; for FGFR2, the enzyme concentration was 2.5 nM, ATP concentration was 1 μM, and the reaction time was 40 minutes; for FGFR3, the enzyme concentration was 8 nM, ATP concentration was 4.7 μM, and the reaction time was 30 minutes: • 2. The reaction was terminated with a stop solution (100 mM HEPES, pH 7.5, 0.2% Caliper coating, reagent, 50 mM EDTA and 0.015% Brij35); • 3. The plate with the terminated kinase reaction was transferred to the Caliper workstation to read the data; • 4. the phosphorylated and unphosphorylated peptides were separated by the Caliper microfluid migration shift technique, and the analyte was transferred by a constant buffer flow through the chip, the migration of the substrate peptide was monitored by the labeled fluorescent signal, and the kinase activity was calculated by the amount of the phosphate-based peptide formed. • 5. IC50 was determined by non-linear regression analysis of percent inhibition at different concentration level of the compound.

[1] = test system: RT112 bladder carcinoma cells (FGFR3-TACC3 fusion); assay: Cell proliferation assay (Cell Titer Glo), RT112; assay type: cell-based; settings: Homo sapiens, RT-112, 72 h, 3 days, CTG, read-out: Cellular IC50 (nM) RT112
Method: (§3) II. Cell Proliferation Assay (Cell Titer Glo(CTG) Assay)
(§4) The FGFR signal pathway dependent inhibitory effect of the compound in the present invention on cell proliferation was assessed by survival test using CTG reagent (Promega, 4G7573). Cell lines representative of a variety of tumor types, including H1581 lung cancer cells (FGFR1 gene amplification), Snu-16 gastric cancer cells (FGFR2 gene amplification), and RT112 bladder carcinoma cells (FGFR3-TACC3 fusion) from Nanjing Cobioer Biosciences, were selected for the assay. The specific experimental procedure was as follows: • 1. 90 μL of cells were seeded into a 96-well plate processed with TCM (Costar 43904), and incubated overnight at 37° C. in a 5% CO2 incubator; afterwards, 10 μL of the culture medium containing the compound at 10 fold of its final concentration was added; • 2. The dose-dependent effect was evaluated by a serial dilution of the test compound, starting from 10 μM or a lower concentration. • 3. The cells were incubated at 37° C. under 5% C02 for 3 days, then added 50 μL CTG, and read the data with Envision (Pelkin Elmer) to quantify the ATP level in the cells. The ATP levels in cells with treatment of inhibitor at a variety of concentrations were compared with those in cells of the control group (in which DMSO was added into the medium) to evaluate the compound percent inhibition of cell proliferation/survival. • 4. The compound half growth inhibitory concentration (IC50) was determined in Graphpad Prism by 4-parameter curve fitting.

FGFR1 = FGFR1 (Homo sapiens (Human), UniProt P11362); assay: In vitro biochemical kinase assay (Caliper Assay), FGFR1; settings: enzyme 0.25 nM, ATP 382 μM, 20 minutes; read-out: Enzymatic activity IC50(nM) FGFR1
Sequence of FGFR1 (P11362 22-822): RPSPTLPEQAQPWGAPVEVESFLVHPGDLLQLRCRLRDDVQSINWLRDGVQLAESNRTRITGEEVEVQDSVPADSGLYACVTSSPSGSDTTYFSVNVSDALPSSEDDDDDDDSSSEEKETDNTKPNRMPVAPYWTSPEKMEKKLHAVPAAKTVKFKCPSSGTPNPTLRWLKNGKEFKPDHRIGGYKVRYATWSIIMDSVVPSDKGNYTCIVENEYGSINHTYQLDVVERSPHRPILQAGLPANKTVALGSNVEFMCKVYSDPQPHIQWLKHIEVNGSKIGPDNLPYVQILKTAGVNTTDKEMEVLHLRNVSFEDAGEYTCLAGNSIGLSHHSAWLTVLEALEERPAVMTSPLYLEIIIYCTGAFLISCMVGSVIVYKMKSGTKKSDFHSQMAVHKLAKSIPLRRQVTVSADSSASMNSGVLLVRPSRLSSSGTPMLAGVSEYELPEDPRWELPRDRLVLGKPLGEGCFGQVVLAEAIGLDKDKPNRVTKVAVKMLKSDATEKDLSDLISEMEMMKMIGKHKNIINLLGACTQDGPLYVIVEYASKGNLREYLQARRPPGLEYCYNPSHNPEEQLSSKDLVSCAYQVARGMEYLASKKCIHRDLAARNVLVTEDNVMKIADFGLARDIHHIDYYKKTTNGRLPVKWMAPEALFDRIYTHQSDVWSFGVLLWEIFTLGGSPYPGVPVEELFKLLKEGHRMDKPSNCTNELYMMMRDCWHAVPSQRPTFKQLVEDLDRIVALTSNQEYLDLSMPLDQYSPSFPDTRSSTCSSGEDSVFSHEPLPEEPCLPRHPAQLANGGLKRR
Method: as §1, §2

[2] = test system: Snu-16 gastric cancer cells (FGFR2 gene amplification); assay: Cell proliferation assay (Cell Titer Glo), Snu-16; assay type: cell-based; settings: Homo sapiens, SNU-16, 72 h, Snu-16 cells, 3 days, CTG, read-out: Cellular IC50 (nM) Sun16
Method: as §3, §4

[3] = test system: H1581 lung cancer cells (FGFR1 gene amplification); assay: Cell proliferation assay (Cell Titer Glo), H1581; assay type: cell-based; settings: 3 days, CTG, read-out: Cellular IC50 (nM) H1581
Method: as §3, §4

FGFR3 = FGFR3 (Homo sapiens (Human), UniProt P22607); assay: In vitro biochemical kinase assay (Caliper Assay), FGFR3; settings: enzyme 8 nM, ATP 4.7 μM, 30 minutes; read-out: Enzymatic activity IC50(nM) FGFR3
Sequence of FGFR3 (P22607 23-806): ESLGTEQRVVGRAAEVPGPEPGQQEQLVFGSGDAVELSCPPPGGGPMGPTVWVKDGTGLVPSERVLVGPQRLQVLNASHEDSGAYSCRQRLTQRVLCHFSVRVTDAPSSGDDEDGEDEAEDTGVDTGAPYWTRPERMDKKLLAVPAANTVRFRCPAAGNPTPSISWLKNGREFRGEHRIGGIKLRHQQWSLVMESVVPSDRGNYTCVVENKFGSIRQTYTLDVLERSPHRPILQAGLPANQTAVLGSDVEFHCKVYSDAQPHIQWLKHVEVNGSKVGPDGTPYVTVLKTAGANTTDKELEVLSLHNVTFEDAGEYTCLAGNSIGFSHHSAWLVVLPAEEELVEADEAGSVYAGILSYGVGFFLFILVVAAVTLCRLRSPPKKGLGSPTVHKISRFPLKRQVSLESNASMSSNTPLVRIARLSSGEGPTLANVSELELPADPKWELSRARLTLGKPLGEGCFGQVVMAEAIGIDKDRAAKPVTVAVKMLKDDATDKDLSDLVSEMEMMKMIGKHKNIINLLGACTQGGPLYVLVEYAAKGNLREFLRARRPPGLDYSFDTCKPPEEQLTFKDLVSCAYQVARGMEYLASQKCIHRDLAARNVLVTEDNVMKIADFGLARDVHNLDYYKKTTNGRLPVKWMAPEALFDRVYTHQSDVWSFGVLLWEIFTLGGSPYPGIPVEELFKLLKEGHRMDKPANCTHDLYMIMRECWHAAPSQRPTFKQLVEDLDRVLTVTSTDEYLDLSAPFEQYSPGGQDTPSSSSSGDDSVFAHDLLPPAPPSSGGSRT
Method: as §1, §2

Sequence of FGFR2 (P21802 22-821): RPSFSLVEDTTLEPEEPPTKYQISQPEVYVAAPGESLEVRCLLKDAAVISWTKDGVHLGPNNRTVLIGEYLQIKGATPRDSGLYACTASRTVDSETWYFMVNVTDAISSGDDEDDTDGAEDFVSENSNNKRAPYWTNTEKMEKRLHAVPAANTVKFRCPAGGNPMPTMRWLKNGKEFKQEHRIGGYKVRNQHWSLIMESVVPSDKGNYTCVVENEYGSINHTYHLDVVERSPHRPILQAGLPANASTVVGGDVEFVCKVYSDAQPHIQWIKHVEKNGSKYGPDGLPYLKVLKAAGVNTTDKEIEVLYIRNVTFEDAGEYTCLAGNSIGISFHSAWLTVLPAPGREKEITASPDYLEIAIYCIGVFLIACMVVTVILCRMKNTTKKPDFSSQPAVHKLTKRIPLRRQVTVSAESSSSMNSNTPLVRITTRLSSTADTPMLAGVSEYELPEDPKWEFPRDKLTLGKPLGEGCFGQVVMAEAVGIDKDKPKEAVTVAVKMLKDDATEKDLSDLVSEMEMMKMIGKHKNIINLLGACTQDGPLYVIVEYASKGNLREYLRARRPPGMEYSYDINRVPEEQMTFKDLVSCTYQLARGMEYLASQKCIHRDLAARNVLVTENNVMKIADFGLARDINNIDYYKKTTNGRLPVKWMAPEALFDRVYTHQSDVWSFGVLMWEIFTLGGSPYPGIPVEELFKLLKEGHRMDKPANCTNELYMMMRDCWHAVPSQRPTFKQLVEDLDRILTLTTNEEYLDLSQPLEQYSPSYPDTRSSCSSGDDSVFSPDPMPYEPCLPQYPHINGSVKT

For `COc1cc(OC)c(F)c(-c2cc3cnc(-c4cnn(C)c4)cc3n(C3CCOC3)c2=O)c1F` (centres unmarked) [Example 28, 3-(2,6-difluoro-3,5-dimethoxyphenyl)-7-(1-methyl-1H-pyrazol-4-yl)-1-(tetrahydrofuran-3-yl)-1,6-naphthyridin-2(1H)-one], the IC50 (FGFR2) was no more than 5 nM, the IC50 [1] was no more than 5 nM and the IC50 (FGFR1) was no more than 5 nM. It also gave an IC50 [2] of no more than 5 nM and an IC50 ([3]; Homo sapiens, NCI-H1581, 72 h) of 10 to 50 nM.
In the case of `CCn1c(=O)c(-c2c(Cl)c(OC)cc(OC)c2Cl)cc2cnc(-c3cnn(CCN4CCOCC4)c3)cc21` [Example 10, 3-(2,6-dichloro-3,5-dimethoxyphenyl)-1-ethyl-7-(1-(2-morpholinoethyl)-1H-pyrazol-4-yl)-1,6-naphthyridin-2(1H)-one], the IC50 (FGFR2) is reported as no more than 5 nM, the IC50 [1] is reported as 10 to 50 nM and the IC50 (FGFR1) is reported as 10 to 50 nM. For the same compound, the IC50 [2] was 10 to 50 nM, the IC50 ([3]; Homo sapiens, NCI-H1581, 72 h) was 50 to 500 nM and the IC50 (FGFR3) was no more than 5 nM.
Compound `COc1cc(OC)c(Cl)c(-c2cc3cnc(-c4cnn(CCN5CCOCC5)c4)cc3n(C)c2=O)c1Cl` [Example 15, 3-(2,6-dichloro-3,5-dimethoxyphenyl)-1-methyl-7-(1-(2-morpholinoethyl)-1H-pyrazol-4-yl)-1,6-naphthyridin-2(1H)-one] has an IC50 (FGFR2) of 5 to 10 nM, an IC50 [1] of 50 to 500 nM and an IC50 (FGFR1) of 50 to 500 nM. For the same compound, the IC50 [2] was 10 to 50 nM, the IC50 ([3]; Homo sapiens, NCI-H1581, 72 h) was 50 to 500 nM and the IC50 (FGFR3) was 50 to 500 nM.
Compound `COc1cc(OC)c(Cl)c(-c2cc3cnc(-c4cnn(C)c4)cc3n(C3CCOC3)c2=O)c1Cl` (stereo in doubt) [Example 21, (R)-3-(2,6-dichloro-3,5-dimethoxyphenyl)-7-(1-methyl-1H-pyrazol-4-yl)-1-(tetrahydrofuran-3-yl)-1,6-naphthyridin-2(1H)-one] has an IC50 (FGFR2) of no more than 5 nM, an IC50 (FGFR1) of 5 to 10 nM and an IC50 [2] of 5 to 10 nM. The IC50 [3] was 50 to 500 nM and the IC50 (FGFR3) was no more than 5 nM.
`COc1cc(OC)c(F)c(-c2cc3cnc(-c4ccc(C5(C#N)CCC5)nc4)cc3n(C3CCOC3)c2=O)c1F` (centres unmarked) [Example 32, 1-(5-(3-(2,6-difluoro-3,5-dimethoxyphenyl)-2-oxo-1-(tetrahydrofuran-3-yl)-1,2-dihydro-1,6-naphthyridin-7-yl)pyridin-2-yl)cyclobutane-1-carbonitrile] showed an IC50 (FGFR2) of no more than 5 nM, an IC50 ([1]; numeric values) of 2.5 nM and an IC50 (FGFR1) of 5 to 10 nM. The IC50 ([2]; numeric values) was 10.7 nM and the IC50 ([3]; Homo sapiens, NCI-H1581, 72 h) was 50 to 500 nM.
`COc1cc(OC)c(Cl)c(-c2cc3cnc(-c4ccc(C5(C#N)CCC5)nc4)cc3n(C3CCOC3)c2=O)c1Cl` (centres unmarked) [Example 16, 1-(5-(3-(2,6-dichloro-3,5-dimethoxyphenyl)-2-oxo-1-(tetrahydrofuran-3-yl)-1,2-dihydro-1,6-naphthyridin-7-yl)pyridin-2-yl)cyclobutane-1-carbonitrile] was tested, and the IC50 (FGFR2) was 10 to 50 nM, the IC50 [1] was 50 to 500 nM and the IC50 (FGFR1) was 50 to 500 nM. For the same compound, the IC50 [2] was 10 to 50 nM and the IC50 ([3]; Homo sapiens, NCI-H1581, 72 h) was 50 to 500 nM.
For `COc1cc(OC)c(Cl)c(-c2cc3cnc(-c4cnn(CCN5CCOCC5)c4)cc3n(C3CCOC3)c2=O)c1Cl` (centres unmarked) [Example 18, 3-(2,6-dichloro-3,5-dimethoxyphenyl)-7-(1-(2-morpholinoethyl)-1H-pyrazol-4-yl)-1-(tetrahydrofuran-3-yl)-1,6-naphthyridin-2(1H)-one], the IC50 ([1]; numeric values) was 4.1 nM, the IC50 ([2]; numeric values) was 6 nM and the IC50 ([3]; Homo sapiens, NCI-H1581, 72 h) was 50 to 500 nM.
`COc1cc(OC)c(Cl)c(-c2cc3cnc(-c4cnn(C)c4)cc3n(C)c2=O)c1Cl` [Example 2, 3-(2,6-dichloro-3,5-dimethoxyphenyl)-1-methyl-7-(1-methyl-1H-pyrazol-4-yl)-1,6-naphthyridin-2(1H)-one] was tested, and the IC50 (FGFR2) was 5 to 10 nM, the IC50 [1] was 50 to 500 nM and the IC50 (FGFR1) was 10 to 50 nM. For the same compound, the IC50 [2] was 10 to 50 nM, the IC50 ([3]; Homo sapiens, NCI-H1581, 72 h) was 50 to 500 nM and the IC50 (FGFR3) was 50 to 500 nM.
